The values that follow come from patent publication US11850254B2, “Tryptamine compositions for enhancing neurite outgrowth” (TURTLE BEAR HOLDINGS, LLC, priority 2019, dated 2023).

One assay relates to neurogenesis. The settings on record: Ly et al. 2018; cited from earlier work.
Assay [1] relates to PC12 cells treated with conditioned media from 1321N1 human astrocytoma cells. As to the kind of experiment: Neurite outgrowth of PC12 cells treated with conditioned media from 1321N1 cells. It is filed as cell-based, rat. The settings on record: conditioned media from treated 1321N1 cells; FIG. 11, n=3. The source says: Although the assay aimed to explore potential synergistic effects of combining HE and psilocybin analogs, this was not clearly observed. […] 1321N1 human brain astrocytoma cells are known to excrete neurologically beneficial compounds when stimulated with neurotrophic compounds and fungal extracts including lion's mane (Mori et al., Biological and Pharmaceutical Bulletin, 9: 1727-1732 (2008)). While some fungi have well established mechanisms by which they benefit neurological health, little is known about the role of psilocybin analogs specifically. Generally following the protocol of Mori et al., 2008, 1321N1 human astrocytoma cells were treated with psilocybin analogs, and conditioned media was collected and applied to differentiated rat pheochromocytoma PC12 cells to determine the resulting impact on neurite outgrowth.

In the next assay the test system is humans. The following applies: cited from earlier work.
Assay [2] relates to anti-inflammatory cytokine IL-10 in human 1321N1 brain cells. Description: ELISA of IL-10 in 1321N1 cells. It counts as cell-based. The source says:
(§1) See Ly et al., “Psychedelics Promote Structural and Functional Neural Plasticity,” Cell Rep.
Background: ELISA stands for enzyme-linked immunosorbent assay.

Assay [3] deals with cortical neurons from rat embryo. Description: Neurite outgrowth and length in cultured neurons (Neurofit), tubulin immunostaining, High-Content Screening. The following applies: versus vehicle control, at the concentrations tested.
The test system of assay [4] is nerve growth factor (NGF) protein in human 1321N1 brain cells. Description: ELISA of NGF protein in 1321N1 cells. It is filed as cell-based. The settings on record: compared to a vehicle control; n=3; p<0.05.
Description: Accordingly, preliminary research has started to reveal the mechanisms by which psilocybin analogs may confer neurotrophic benefits that facilitate neurite outgrowth.
as §1

The test system of the next assay is human U87 cells. The following applies: Zhang et al. 2020; cited from earlier work.
Another assay has as its target 5-HT2A receptor (Homo sapiens, UniProt P28223). The settings on record: cited from earlier work.

“Also recorded” adds a separate entry of the source. Like-named read-outs stand apart in the source and are kept apart here.

Sequence of 5-HT2A receptor (P28223 whole entry): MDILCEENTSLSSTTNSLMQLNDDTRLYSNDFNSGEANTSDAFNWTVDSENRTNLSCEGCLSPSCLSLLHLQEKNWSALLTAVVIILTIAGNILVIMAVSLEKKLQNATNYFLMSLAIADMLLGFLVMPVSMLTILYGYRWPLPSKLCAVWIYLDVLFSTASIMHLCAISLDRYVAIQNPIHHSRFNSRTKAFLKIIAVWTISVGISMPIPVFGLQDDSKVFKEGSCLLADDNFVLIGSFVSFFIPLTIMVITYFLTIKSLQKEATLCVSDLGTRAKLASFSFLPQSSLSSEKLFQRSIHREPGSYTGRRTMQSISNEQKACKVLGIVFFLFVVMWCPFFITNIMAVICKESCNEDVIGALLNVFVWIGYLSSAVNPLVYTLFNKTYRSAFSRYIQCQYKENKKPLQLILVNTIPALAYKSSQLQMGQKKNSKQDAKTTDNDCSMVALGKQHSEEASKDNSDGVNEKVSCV

`COc1cc(CC(C)N)c(OC)cc1I` (centres unmarked) [DOI, 2,5-dimethoxy-4-iodoamphetamine]: the neurogenesis entry in the assay on neurogenesis was “promoted neurogenesis”.
On to `CCN(CC)C(=O)[C@@H]1C=C2c3cccc4[nH]cc(c34)C[C@H]2N(C)C1` [LSD, N,N-diethyl-D-lysergamide], for which the neurogenesis entry in the assay with neurogenesis is reported as “promoted neurogenesis”.
Regarding `CNCCc1c[nH]c2cccc(OP(=O)(O)O)c12` [baeocystin, 4-phosphoryloxy-N-methyltryptamine], the “neurite outgrowth in PC12 cells” value in assay [1] is recorded as “induce neurite outgrowth”. Further, the hallucinogenic effect entry in the assay on humans (4 mg consumed, Gartz 1991) is listed as “gentle hallucinogenic experience”; in the assay on humans (oral consumption of 10 mg and 20 mg), “did not produce any hallucinogenic effects”. For the same compound, in the assay on humans (Gartz 1997), the “potency and psychotropic effects” value was “roughly akin to psilocybin”.
In the case of `CN(C)CCc1c[nH]c2ccccc12` [dimethyltryptamine, N,N-dimethyltryptamine], the neurogenesis result with neurogenesis is on record as “promoted neurogenesis”.
Consider `CNCCc1c[nH]c2cccc(O)c12` [norpsilocin, 4-hydroxy-N-methyl-tryptamine], for which the “neurite outgrowth in PC12 cells” value in assay [1] was “induce neurite outgrowth”. The “expression of the anti-inflammatory cytokine IL-10” value in assay [2] is recorded as “induces the expression”. The “neurite outgrowth, in words” value in assay [3] is “did not perform better than vehicle control”.
With `NCCc1c[nH]c2cccc(OP(=O)(O)O)c12` [norbaeocystin, 4-phosphoryloxy-tryptamine], the “neurite outgrowth in PC12 cells” value in assay [1] is on record as “induce neurite outgrowth”. The “expression of NGF protein” value in assay [4] was “increased expression of NGF protein; also recorded: induces the expression; also recorded: induction of NGF protein”.
Consider `CC(=O)O[C@@H]1C[C@@H]2C3=C(C(C)C)CC[C@]3(C)CC[C@@]2(C)[C@@H](O[C@@H]2OC[C@@H](O)[C@H](O)[C@H]2O)C=C1C=O` [P], for which the inhibition of gliomas result in the assay with human U87 cells is on record as “inhibitors of gliomas”.
With `COc1cc(C[C@@H](C)N)c(OC)cc1I` [(R)-2,5-dimethoxy-4-iodoamphetamine], the 5-HT2A receptor activation result at 5-HT2A receptor is given as “activate the 5-HT2A receptor”.
